Measured values from patent US11384115B2, “Nuclear sulfated oxysterol, potent regulator of lipid homeostasis, for therapy of hypercholesterolemia, hypertriglycerides, fatty liver diseases, and atherosclerosis” (Virginia Commonwealth University, priority 2004, dated 2022).

Key:
[1] = Single peritoneal injection in mice, serum lipids and serum enzymes; assay type: in vivo
Experimental: Administration to female mice (20-25 g weight) was by peritoneal injection once with or without 72 μg of the nuclear oxysterol in 100 μl of 0.9% NaCl containing 3 μl of ethanol. Twelve hrs following the injection, blood was harvested for analysis of triglycerides and cholesterol.

TNFα and IL-1β mRNA = experiment: LPS-induced TNFα, IL-1β and NFκB mRNA by real-time RT-PCR in THP-1 macrophages; assay type: cell-based, human; conditions: for LPS-induced IL-1β mRNA levels / LPS-induced TNFα mRNA levels: 25 hours; for LPS-induced IL-1β mRNA levels: FIG. 28A; for LPS-induced TNFα mRNA levels: FIG. 28B
Experimental: FIGS. 28A and B. Addition of 25HC3S suppresses LPS-induced IL-1β (A) and TNFα (B) expression in macrophages. To study the effect of 25HC3S on LPS-induced TNFα and IL-1β expression and release, macrophages were treated with 1 μg/ml of LPS and different concentrations of 25HC3S and 25HC as indicated for 25 hours; mRNA levels of TNFα and IL-1β were determined by real time RT-PCR. The results represent mean SD. […] Both 25HC3S and 25HC repressed LPS-induced TNFα mRNA levels as shown in B.
Total RNA was isolated from THP-1 derived macrophages following treatments for 6 hrs otherwise as indicated using SV Total RNA Isolation Kit (Promega, Wisconsin, Wis.), which includes DNase treatment. Two microgram of total RNA was used for first-strand cDNA synthesis as recommended by manufacturer (Invitrogen, Carlsbad, Calif.). Real-time RT-PCR was performed using SYBR Green as indicator on ABI 7500 Fast Real-Time PCR System (Applied Biosystems, Foster City, Calif.). The final reaction mixture contained 10 ng of cDNA, 100 nM of each primer, 10 μl of 2×SYBR® Green PCR Master Mix (Applied Biosystems, Foster City, Calif.), and RNase-free water to complete the reaction mixture volume to 20 μl. All reactions were performed in triplicate. PCR was carried out for 40 cycles of 95° C. for 15 s and 60° C. for 1 min. The fluorescence was read during the reaction, allowing a continuous monitoring of the amount of PCR product. The data was normalized to internal control GAPDH.
pSilencer2.1-U6 neo siRNA expression vector and negative control for RNAi were purchased from Ambion, Inc. (Austin, Tex.). Three human PPARγ oligonucleotide sequences, […] (siRNA1, SEQ ID NO: 13), […] (siRNA2, SEQ ID NO: 14), and […] (siRNA3, SEQ ID NO: 15), were selected as specific siRNAs to target human PPARγ. Synthetic sense and antisense oligonucleotides were annealed by incubated at 90° C. for 3 min and then at 37° C. for 1 hr. The double stranded oligonucleotides were cloned into the BamH I-Hind III sites of the pSilencer2.1-U6 neo vector according manufacturer's protocol. The control RNA interference (RNAi) sequence was a randomly scrambled and was not found in the mouse, human, or rat genome databases. All of the constructs were confirmed by sequencing. THP-1 macrophages were transfected with a PPARγ siRNA or control RNAi using FugeneHD reagent according to the manufacturer's instructions (Roche Applied Science, Indianapolis, Ind.). After incubation for 4 hrs, the medium was changed with normal medium and compounds were added at appropriate concentrations as indicated. Cells were harvested after 48 hrs following the addition, and PPARγ protein levels were determined using western blot and mRNA levels of inflammatory response factors were measured by real time RT-PCR analysis.

primary rat hepatocytes = experiment: Bile acid synthesis rate, conversion of [14C]cholesterol into methanol/water-soluble products; assay type: cell-based; conditions: addition to primary rat hepatocytes
Experimental: FIGS. 9A-9B. Effect of the nuclear oxysterol on cholesterol uptake and bile acid biosynthesis. Rat primary hepatocyes were treated with nuclear extracts (methanol/water phase) (A and B) or purified nuclear oxysterol dissolved in control nuclear extract (C) 24 hrs after plating them. Then [^14C]cholesterol was added as described in FIG. 1. Culture media were then harvested at 0, 6, 12, and 24 hrs and radioactivity quantified (A). Bile acid synthesis rates (B and C) were measured as the conversion of [^14C]cholesterol into methanol/water extractable counts as described in (9). Bile acid synthetic rates were determined by the addition of 2.5 μCi of [^14C]cholesterol to each […] mm plate of confluent primary rat hepatocyte cultures ( 2.5×10^7 cells) 24 hrs after plating. Media and cells were harvested […]. Conversion of [^14C]cholesterol into [^14C]-methanol-water soluble products was determined by scintillation counting after extraction with chloroform-methanol (2:1, vol/vol) of cells and of culture media. Rates of bile acid biosynthesis following recombinant adenovirus infection were calculated as the ratio of [^14C]-methanol-water soluble counts to the sum of chloroform plus methanol-water counts. Individual bile acids were identified by HPLC analysis as described above. […] The phases were collected separately and counted.

[2] = Liver triglycerides (Sudan IV staining) in mice on normal or high cholesterol diet; assay type: in vivo; conditions: normal or high cholesterol diet for 8 days
Text: To test the effect of diet on cholesterol levels, mice were provided with either a normal or high cholesterol diet for 8 days, and treated with the nuclear oxysterol as described above.

[3] = female mice, 72 μg peritoneal injection once, 12 hrs
[4] = in vivo, only one administration

Row | SMILES | activities of alkaline phosphotase, SGPT and SGOT in sera ([1]; female mice, 72 μg peritoneal injection once) | decrease of cholesterol levels in serum [1, 3] [%] | decrease of triglycerides in serum [1, 3] [%] | HDL [1, 4] | decrease of serum cholesterol and triglyceride [1, 4] [%] | LPS-induced IL-1β mRNA levels (TNFα and IL-1β mRNA; 1 μg/ml LPS) | LPS-induced TNFα mRNA levels (TNFα and IL-1β mRNA; 1 μg/ml LPS) | LPS-induced TNFα, IL-1β and NFκB expression (TNFα and IL-1β mRNA; 12 μM, 48 hrs, control macrophages) | suppression of IL-1 and TNFα expression in the presence of T0070907 (TNFα and IL-1β mRNA; PPARγ antagonist T0070907) | LPS-induced TNFα, IL-1β and NFκB expression in siRNA-expressed cells (TNFα and IL-1β mRNA; PPARγ knock down macrophages) | suppression of LPS-induced IL-1β mRNA levels (TNFα and IL-1β mRNA; macrophages, 1 μg/ml LPS) [fold] | effect on bile acid synthetic rates (primary rat hepatocytes) | triglyceride levels in liver tissues [2] | increase of LPS-induced IL-1β mRNA levels (TNFα and IL-1β mRNA; macrophages, 1 μg/ml LPS) [fold]
1 | C[C@H](CCCC(C)(C)O)[C@H]1CC[C@H]2[C@@H]3CC=C4C[C@@H](OS(=O)(=O)O)CC[C@]4(C)[C@H]3CC[C@]12C [25HC3S, 5-cholesten-3β, 25-diol 3-sulphate] | did not increase | 15 | 40 | significantly increases | 20 | significantly suppressed | repressed | significantly suppressed | significantly be blunted | failed in suppressing | 2 | very similar to those in cells directly treated with the nuclear extracts from the StarD1 overexpressing cells | significantly decreased | 
2 | C[C@H](CCCC(C)(C)O)[C@H]1CC[C@H]2[C@@H]3CC=C4C[C@@H](O)CC[C@]4(C)[C@H]3CC[C@]12C [25HC, 25-hydroxycholesterol, reference compound] |  |  |  |  |  | significantly increased | repressed |  |  |  |  |  |  | 2
